Results on four molecules are retold here after ChEMBL document CHEMBL3992523, “Potent Inhibition of Nitric Oxide-Releasing Bifendate Derivatives against Drug-Resistant K562/A02 Cells in Vitro and in Vivo” (J Med Chem, 2017).

Series [1] is filed under the species Homo sapiens. The series is described as follows: Inhibition of P-gp in human K562/A02 cells assessed as increase in intracellular rhodamine123 accumulation at 0.33 to 10 uM measured after 1 hr by flow cytometry. Type of series: cell-based.
Series [2] relates to K562. Kind of series: Effect on rhodamine123 accumulation in human K562 cells at 0.33 to 10 uM measured after 1 hr by flow cytometry. Format: functional, cell-based. For orientation: Flow cytometry measures light scatter and fluorescence of single cells or particles in a stream.
Series [3] is filed under the species Homo sapiens. The series is described as follows: Effect on P-gp ATPase activity in human K562/A02 cell membranes assessed as remaining ATP level by measuring relative light units at 200 uM in presence of MgATP measured after 40 mins by luminescence based P-gp-Glo assay.
For series [4], the system named is K562. Kind of series: Anti-proliferative activity against human K562 cells measured after 72 hrs by MTS assay. Format: functional, cell-based. Particulars: K562, 72 h.
Series [5] relates to K562/A02. The series is described as follows: Anti-proliferative activity against P-gp overexpressing/drug resistant human K562/A02 cells measured after 72 hrs by MTS assay. Format: functional, cell-based. Particulars: K562/A02, 72 h. For orientation: Formazan colour is commonly taken as a measure of viable cells.
The nature of series [6]: Resistant factor, ratio of IC50 for P-gp overexpressing/drug resistant human K562/A02 cells to IC50 for human K562 cells. Type of series: functional.
Series [7] can be described thus: Drug metabolism in P-gp overexpressing/drug resistant human K562/A02 cells assessed as nitric oxide production at 100 uM measured at 240 mins by Griess assay. Format: ADME, cell-based. Particulars: k562/a02, 4 h. On the technique in general: The Griess reaction detects nitrite, a stable product of nitric oxide.
Series [8] concerns K562/A02. The series is described as follows: Anti-proliferative activity against P-gp overexpressing/drug resistant human K562/A02 cells at 150 uM in presence of hemoglobin measured after 24 hrs by MTS assay. Format: functional, cell-based.
For series [9], the system named is K562/A02. The series is described as follows: Antitumor activity against P-gp overexpressing/drug resistant human K562/A02 cells xenografted in BALB/c nude mouse assessed as reduction in tumor size at 4 mg/kg, iv administered every other day for 21 days measured post last dose. Type of series: functional, organism-based.
For series [10], the system named is K562/A02. Kind of series: Antitumor activity against P-gp overexpressing/drug resistant human K562/A02 cells xenografted in BALB/c nude mouse assessed as reduction in tumor weight at 4 mg/kg, iv administered every other day for 21 days measured post last dose. Format: functional, organism-based.
Series [11] concerns K562/A02. Kind of series: Antitumor activity against P-gp overexpressing/drug resistant human K562/A02 cells xenografted in BALB/c nude mouse assessed as tumor growth inhibition at 4 mg/kg, iv administered every other day for 21 days measured post last dose relative to control. Particulars: 504 h, read-out: TGI. Format: functional.
Series [12] is described as follows: Toxicity in BALB/c nude mouse administered via ip for every 3 days of four injections. The conditions noted are these: in vivo.

pIC50: −log10 of the molar value. The source made the active and inactive calls. The rule behind the calls is not given here.

Turning to `COc1ccc(CCN(C)CCCC(C#N)(c2ccc(OC)c(OC)c2)C(C)C)cc1OC` (stereo unspecified), in [1], the inhibition entry is “Active”. Also, in series [2], the outcome was inactive. The Activity in [3] was determined as 179000 RLU.
Consider SODIUM ORTHOVANAD, for which the Activity in series [3] was determined as 242000 RLU.
Broadly, the pIC50 is the negative decadic logarithm of the IC50, by convention in mol/L. A low value points to a high IC50. For `COC(=O)c1cc(OC)c2c(c1-c1c(C(=O)O)cc(OC)c3c1OCO3)OCO2`, the pIC50 was 3.86 in series [4] and 3.90 in [5]. Further, the “Ratio IC50” value in series [6] came to 0.9. Further, in series [7], the Drug metabolism entry is reported as “Metabolite_Notdetected”. In addition, the result in series [8] was inactive.
On to `COc1cccc2c1C(=O)c1c(O)c3c(c(O)c1C2=O)C[C@@](O)(C(=O)CO)C[C@@H]3O[C@H]1C[C@H](N)[C@H](O)[C@H](C)O1.Cl` [DOXORUBICIN HYDROCHLORIDE], for which the pIC50 in [4] was 6.23; in [5], 4.61. The “Ratio IC50” value in series [6] is on record as 41.5. Also, the outcome in [9] and in series [10] was inactive. Moreover, the inhibition in vivo at 4 mg/kg in series [11] was found to be 18.6%. In addition, in series [12], the MTD at 72 h stood at 4 mg/kg.
